# Tests used:
# W548L mutant ALS = biological target: T1, W548L mutant ALS (Oryza sativa subsp. japonica, UniProt Q6K2E8, W548L); assay: Herbicide sensitivity of crude ALS with W548L mutation only, 1 mM valine; assay type: biochemical, rice; conditions: crude enzyme
# T1 construct: one type of cDNA containing a full length ALS gene could be obtained from a cDNA library derived from the wild type; made in house; host or cells: E. coli JM 109, pGEX-2T backbone (pGEX-2T-wALS); crude enzyme solution
# T1 sequence (Q6K2E8 44-644 W548L): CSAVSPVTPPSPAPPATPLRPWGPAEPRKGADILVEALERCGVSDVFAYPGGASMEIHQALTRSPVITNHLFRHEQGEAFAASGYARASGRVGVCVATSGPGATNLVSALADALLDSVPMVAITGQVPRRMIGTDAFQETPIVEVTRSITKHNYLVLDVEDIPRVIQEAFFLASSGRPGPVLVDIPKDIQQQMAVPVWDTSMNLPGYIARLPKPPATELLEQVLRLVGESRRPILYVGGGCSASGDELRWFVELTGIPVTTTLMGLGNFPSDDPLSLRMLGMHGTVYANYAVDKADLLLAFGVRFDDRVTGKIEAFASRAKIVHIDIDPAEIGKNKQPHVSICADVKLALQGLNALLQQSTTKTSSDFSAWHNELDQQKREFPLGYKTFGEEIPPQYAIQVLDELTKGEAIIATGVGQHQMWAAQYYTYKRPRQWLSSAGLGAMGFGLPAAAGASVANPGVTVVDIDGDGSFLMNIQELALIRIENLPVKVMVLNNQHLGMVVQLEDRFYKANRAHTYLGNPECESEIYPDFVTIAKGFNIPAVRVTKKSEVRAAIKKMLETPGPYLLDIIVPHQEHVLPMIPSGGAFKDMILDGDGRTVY
# Description: A plasmid having W548L mutant ALS gene or a plasmid having S627I mutant ALS gene was transformed into E. coli strain JM 109. The colonies obtained from transformation were subjected to liquid culture, expression of GST induction protein was induced in the same manner as in Examples 4 and 5, a crude enzyme solution was prepared, and then herbicide sensitivity of ALS was examined in the presence of 1 mM valine.
# [1] = system: callus of a rice plant (Nippon-bare) transformed with a mutant ALS gene; assay: Bispyribac-sodium sensitivity of calli of rice transformed with the mutant ALS gene; assay type: cell-based
# Description: Simultaneously with the above described potting, part of the calli which had not redifferentiated (9 calli) (FIG. 35) was sub-cultured on solid media for production of a bispyribac-sodium resistant callus used in Example 1. The solid media contained 10 μM bispyribac-sodium. Thus, 6 out of 9 calli grew normally. […] Accordingly, 6 calli grown on a solid medium containing 10 μM bispyribac-sodium were all shown to have strong bispyribac-sodium resistance.
# [2] = system: callus of the wild type rice plant (Nippon-bare); assay: Bispyribac-sodium sensitivity of callus of wild type rice plant; assay type: cell-based
# [3] = system: rice plant transformed with the mutant ALS gene; assay: Foliar spray of bispyribac-sodium on transformant rice plants, growth survey; assay type: in vivo, rice (Nippon-bare); conditions: 1 kg of a.i./ha with 0.2% surfactant K, sprayed over leaves and stems; about 40 days after spraying
# Excerpt: Of 80 hygromycin resistant transformant rice plants potted, those which grew normally at the leaf stage 5 were 27 plants to which the mutant ALS gene had been introduced and 46 plants to which the wild type ALS gene had been introduced. Plants containing the wild type ALS gene introduced therein tended to grow healthier than those containing the mutant ALS gene therein. At this time, 4 plants containing the mutant ALS gene introduced therein and 5 plants containing the wild type ALS gene introduced therein were appropriately selected, and 1 kg of a.i./ha bispyribac-sodium salt supplemented with 0.2% surfactant K was sprayed over the leaves and stems. In FIG. 40, the plant length A was about 90 cm.
# wild type ALS protein = biological target: T2, wild type ALS protein (Oryza sativa subsp. japonica, UniProt Q6K2E8); assay: Herbicide sensitivity of crude wild type ALS expressed in E. coli, in presence of valine; assay type: biochemical, rice; set-up: one type of cDNA containing a full length ALS gene could be obtained from a cDNA library derived from the wild type; made in house; host or cells: E. coli JM 105, pGEX-2T; crude enzyme solution (sonicate supernatant); conditions: crude enzyme from E. coli, valine added
# T2 sequence (Q6K2E8 44-644): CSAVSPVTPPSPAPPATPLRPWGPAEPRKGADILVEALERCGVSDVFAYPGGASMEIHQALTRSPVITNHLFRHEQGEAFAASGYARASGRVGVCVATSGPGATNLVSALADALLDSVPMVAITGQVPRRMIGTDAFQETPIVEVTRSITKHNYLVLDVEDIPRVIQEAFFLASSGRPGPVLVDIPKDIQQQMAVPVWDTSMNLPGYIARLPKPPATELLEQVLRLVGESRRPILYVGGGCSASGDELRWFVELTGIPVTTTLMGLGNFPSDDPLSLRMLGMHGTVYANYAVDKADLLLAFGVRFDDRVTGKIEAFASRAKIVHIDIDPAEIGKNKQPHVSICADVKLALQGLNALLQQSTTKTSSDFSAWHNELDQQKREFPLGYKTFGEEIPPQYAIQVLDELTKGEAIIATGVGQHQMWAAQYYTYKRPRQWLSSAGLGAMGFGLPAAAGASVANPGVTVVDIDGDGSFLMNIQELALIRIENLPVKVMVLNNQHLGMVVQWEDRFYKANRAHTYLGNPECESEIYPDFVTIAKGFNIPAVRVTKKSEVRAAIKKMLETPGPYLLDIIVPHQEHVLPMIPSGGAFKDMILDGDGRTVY
# Description: Preparation and purification of ALS from E. coli were performed by the following method. First, a pellet of the transformant E. coli stored at −80° C. was suspended in ALS extraction buffer (potassium phosphate buffer (pH 7.5) containing 30% glycerol and 0.5 mM MgCl2). Specifically, 2.5 ml of the buffer was added to the pellet obtained from 50 ml of the culture solution. The suspension was subjected to ultrasonication (Heat Systems-Ultrasonics, Sonicator W-225R, micro chip, output control 8, interval of approximately 1 sec, twice (40 sec each)), and subjected to centrifugation at 15000×g, 4° C. for 20 min, thereby obtaining the supernatant as a crude enzyme solution.
# Herbicide sensitivity of mutant ALS protein was examined using the crude enzyme solution obtained in Example 4. Herbicide sensitivity test was performed in the manner same as that in Example 2. In the herbicide sensitivity test, three herbicides, bispyribac-sodium, pyrithiobac-sodium, and pyriminobac were used as PC herbicides; four drugs, chlorsulfuron, bensulfuron-methyl, pyrazosulfuron-ethyl and imazosulfuron were used as sulfonylurea herbicides; and two drugs, imazaquin, and imazapyr were used as imidazolinon herbicides. […]
SMILES,resistance imparted by W548L mutation alone (W548L mutant ALS),calli that grew normally on solid medium ([1]; 10 μM bispyribac-sodium),drug sensitivity of transformant callus in liquid culture ([1]; one of the 6 normally growing calli),drug sensitivity of wild type callus [2],growth of plant containing the mutant ALS gene after spraying [3],wild type ALS activity in the presence of herbicide (wild type ALS protein)
"COc1cc(OC)nc(Oc2cccc(Oc3nc(OC)cc(OC)n3)c2C(=O)[O-])n1.[Na+] [Bispyribac-sodium, bispyribac-sodium]",imparted resistance,6 out of 9,showed bispyribac-sodium resistance,showed bispyribac-sodium sensitivity,grew almost normally,inhibited
"COc1nc(C)nc(NC(=O)NS(=O)(=O)c2ccccc2Cl)n1 [Chlorsulfuron, chlorsulfuron]",imparted resistance,–,–,–,–,–
